Columns and labels:
[1] = system: peripheral blood mononuclear cells (PBMC); assay: Mitochondrial activity: MTT on PBMC; format: cell-based, human; conditions: for Cell viability after incubation with dendrimers according to MTT: 48 hours, relative to untreated control; for mitochondrial viability (comparison among dendrimers): increasing concentrations of CBS or SF
Description: The toxicity of dendrimers IM8, IM16, ClNH4, NN, Phe and the commercial controls SF (Superfect) and G4 were tested. Different quantities were taken of each one of them so that the final concentrations with which the cells were incubated were 1 μM, 5 μM, 10 μM, 20 μM and 100 μM.
The blood came from adult donors or the umbilical cord of health newborns. Said blood was diluted ½ with PBS and it was centrifuged in a Ficoll gradient. After said centrifugation, the PBMC halo was recovered and two subsequent washing-centrifuging cycles were carried out. The resulting PBMC were resuspended in complete culture medium with 10% FCS, antibiotics and glutamine.
100 μl of 10% complete medium of foetal calf serum, antibiotics and glutamine were added to a volume of 60 μl of RPMI with the corresponding dendrimer tested. 160 μl were then added to the cells seeded in 340 μl, completing a final volume of 500 μl. The cells were incubated in this way for 48 hours and then the effect of the incubation with the dendrimers was evaluated by its visual examination and by the evaluation of the mitochondrial activity.
A curve of mitochondrial activity was performed of the dendrimer concentration after 48 hours. […] It is a […] test based on the selective capacity of the cells viable for reducing 3-(4,5-dimethylthiazol-2-il)-2,5-diphenyl tetrazolium bromide in insoluble formazan crystals. After 48 hours of incubation of the PBMC with different concentrations of dendrimers in a 96-well plate (100,000/well), the supernatant which contained dendrimer was removed and it was replaced by 200 μl of a culture medium without serum or red phenol (Optimem). To avoid the loss of cells in this step and subsequently of formazan, a modification had been made of the protocol, seeding the PBMC in total human plasma fibronectin (Sigma®) at a concentration of 5-10 μg/ml, so that during the 4-hour incubation they fixed to the bottom of the well. In addition to the 200 μl of Optimem, 20 μl of filtered MTT were added to achieve its sterility (Thiazolyl Blue, Sigma®) in PBS pH 7.4 at a concentration of 5 mg/ml to achieve a final concentration per well of 0.5 mg MTT/ml. After 4 hours of incubation at 37° C. with 5% CO2 atmosphere, the plate was centrifuged at 2000 rpm and the supernatant with the excess MTT that had not reacted was subsequently removed. The formazan crystals were observed under a phase contrast microscope and later dissolved with 200 μl of dimethyl sulfoxide (DMSO). The plate was stirred at 700 rpm in an Eppendorf® stirrer-heater to ensure the correct dissolution of said crystals. The concentration of formazan ([A]) was determined by spectrometry using a plate reader at a wavelength of 570 nm with a reference of 690 nm. The spectrophotometry was calibrated to zero using Optimem without cells. The relative cell viability (%) with respect to the control (untreated cells), based on mitochondrial activity, was calculated based on this formula: [A] test/[A] control×100. Each dendrimer concentration was tested in triplicate, following the guidelines of the ATCC.

[2] = Dendrimer-drug binding test (polyacrylamide gel delay), heparin; conditions: dendrimer 100 μM, heparin 10, 1, 0.5, 0.1 U, 37° C., 1 hour
Description: (§1) The drugs chosen to perform the tests, all with at least one negative charge at physiological pH, were: • Methotrexate (sodium salt): • 1 charge (−) • Supplying laboratory: Almirall • Presentation: 25 mg/ml solution • Excipients: NaCl, NaOH, HCl, double-distilled H2O • Heparin (sodium salt) • Several charges (−) • Supplying laboratory: Rovi • Presentation: 10 mg/ml solution (1000 U) • Excipients: methyl p-oxybenzoate, propyl p-oxybenzoate, NaCl, double-distilled H2O • Insulin (recombinant human insulin) • 4 charges (−) • Supplying laboratory: Novo Nordisk • Product trade name: Actrapid • Presentation: 3.5 mg/ml solution (100 U) • Excipients: ZnCl2, HCl, NaOH, double-distilled H2O
(§2) The determination of the bond and complex formation between the dendrimer and the drug was performed by evaluating the delay in the polyacrylamide gel of the dendrimer bound to drug with respect to the free dendrimer: • Complex formation: It is performed in a final volume of the mixture of 30 μl, which is the maximum volume to load in the gel. To do this, one starts from the necessary quantity of dendrimer that provides a perfectly identifiable band by staining with silver nitrate in the gel once the electrophoresis has been carried out: 20 μl of a 100 μM solution, which corresponds to […] molecules. The drug is added in the 10 μl at different concentrations to produce the chosen (+) and (−) charge ratios, also determining the quantity of drug molecules present in the mixture. An incubation of said mixture was performed at 37° C. during 1 hour to give time for a more thermodynamically stable complex to form, although more time may be needed for its formation. Each complex is performed in duplicate. • Electrophoresis and gel staining: The gels used were 7.5% polyacrylamide/bisacrylamide, prepared with 1.5M Tris pH 8.8. Each electrophoresis was carried out at 90 volts during 4 hours, after which the gel was stained with silver nitrate and photographed. […]

[3] = target: T1, Insulin (recombinant human insulin) (Homo sapiens, UniProt P01308); assay: Dendrimer-drug binding test (polyacrylamide gel delay), insulin; conditions: dendrimer 100 μM, insulin 1, 0.5, 0.1, 0.05 U, 37° C., 1 hour
T1 construct: Despite having its molecular weight (5825 g/mol) and establishing an average of 4 (−) charges; purchased Novo Nordisk Actrapid (trade name; no catalogue number given)
Description: as §1, §2

[4] = Dendrimer-drug binding test (polyacrylamide gel delay), methotrexate; conditions: dendrimer 100 μM, charge ratios 1+/1− to 8+/1−, 37° C., 1 hour
Description: as §1, §2

ODN TAR = assay: Stability of the NN-ODN dendriplex in complete medium with 10% foetal calf serum; conditions: TAR+NN 2/1, complete medium with 10% FCS
Description: With the intention of seeing the stability of the dendriplexes in the presence of serum over time, a test was performed wherein to the samples was added complete medium which contained 10% foetal calf serum (FCS). The following samples were prepared with TAR as ODN:
As indicated, 20′ after its preparation 100 μl of complete medium were added to samples 1, 2 and 3. From each one of the samples 45 μl aliquots were taken after 40 minutes, 4 hours and 17 hours and they were subjected to electrophoresis in agarose gel. The samples were loaded in the gel following the ordering of its numbering from left to right, having previously situated a 100 bp ladder marker. In the last point (17 hours), only the 2/1 ratio complex was tested against ODN without NN. The results are shown in FIG. 7, wherein there appears a date on each one of the wells corresponding to samples with TAR+NN in 2/1 ratio.

T1 sequence (P01308 25-54 limits assumed): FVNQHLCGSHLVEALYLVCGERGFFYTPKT
T1 sequence (P01308 90-110 limits assumed): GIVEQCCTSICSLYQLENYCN

Row | SMILES | Cell viability after incubation with dendrimers according to MTT ([1]; 1 μM) | Cell viability after incubation with dendrimers according to MTT ([1]; 5 μM) | Cell viability after incubation with dendrimers according to MTT ([1]; 10 μM) | Cell viability after incubation with dendrimers according to MTT ([1]; 20 μM) | Cell viability after incubation with dendrimers according to MTT ([1]; 100 μM) | mitochondrial viability (comparison among dendrimers) [1] | dendrimer-heparin complex formation (delay in gel) [2] | dendrimer-insulin complex formation (delay in gel) [3] | dendrimer-methotrexate complex formation (delay in gel) [4] | time after which the NN dendrimer releases the ODN (ODN TAR)
1 | C[N+](C)(C)CCOc1cc(CO[Si](C)(C)CCC[Si](C)(CCC[Si](CCC[Si](C)(CCC[Si](C)(C)OCc2cc(OCC[N+](C)(C)C)cc(OCC[N+](C)(C)C)c2)CCC[Si](C)(C)OCc2cc(OCC[N+](C)(C)C)cc(OCC[N+](C)(C)C)c2)(CCC[Si](C)(CCC[Si](C)(C)OCc2cc(OCC[N+](C)(C)C)cc(OCC[N+](C)(C)C)c2)CCC[Si](C)(C)OCc2cc(OCC[N+](C)(C)C)cc(OCC[N+](C)(C)C)c2)CCC[Si](C)(CCC[Si](C)(C)OCc2cc(OCC[N+](C)(C)C)cc(OCC[N+](C)(C)C)c2)CCC[Si](C)(C)OCc2cc(OCC[N+](C)(C)C)cc(OCC[N+](C)(C)C)c2)CCC[Si](C)(C)OCc2cc(OCC[N+](C)(C)C)cc(OCC[N+](C)(C)C)c2)cc(OCC[N+](C)(C)C)c1.[I-].[I-].[I-].[I-].[I-].[I-].[I-].[I-].[I-].[I-].[I-].[I-].[I-].[I-].[I-].[I-] [Phe, 2G-[Si(OCH2—(C6H3)-3,5-(OCH2CH2NMe3^+I^−)2)]8] | 83% | 77% | 71% | 54% | 14% | greater mitochondrial viability | – | – | – | –
2 | C[Si](C)(CCCN)CCC[Si](C)(CCC[Si](C)(C)CCCN)CCC[Si](CCC[Si](C)(CCC[Si](C)(C)CCCN)CCC[Si](C)(C)CCCN)(CCC[Si](C)(CCC[Si](C)(C)CCCN)CCC[Si](C)(C)CCCN)CCC[Si](C)(CCC[Si](C)(C)CCCN)CCC[Si](C)(C)CCCN.Cl.Cl.Cl.Cl.Cl.Cl.Cl.Cl [ClNH4, 2G-[Si(CH2)3NH3^+Cl^−]8] | 65.5% | 47% | 40% | 16% | 14% | – | – | – | – | –
3 | C[N+](C)(C)CCO[Si](C)(CCC[Si](C)(CCC[Si](CCC[Si](C)(CCC[Si](C)(OCC[N+](C)(C)C)OCC[N+](C)(C)C)CCC[Si](C)(OCC[N+](C)(C)C)OCC[N+](C)(C)C)(CCC[Si](C)(CCC[Si](C)(OCC[N+](C)(C)C)OCC[N+](C)(C)C)CCC[Si](C)(OCC[N+](C)(C)C)OCC[N+](C)(C)C)CCC[Si](C)(CCC[Si](C)(OCC[N+](C)(C)C)OCC[N+](C)(C)C)CCC[Si](C)(OCC[N+](C)(C)C)OCC[N+](C)(C)C)CCC[Si](C)(OCC[N+](C)(C)C)OCC[N+](C)(C)C)OCC[N+](C)(C)C.[I-].[I-].[I-].[I-].[I-].[I-].[I-].[I-].[I-].[I-].[I-].[I-].[I-].[I-].[I-].[I-] [IM16, 2G-[Si(OCH2CH2NMe3^+I^−)2]8] | 94% | 99% | 63% | 37% | 11% | greater mitochondrial viability | complex is formed | complex is formed | complex is not formed | –
4 | C[N+](C)(C)CCO[Si](C)(C)CCC[Si](C)(CCC[Si](CCC[Si](C)(CCC[Si](C)(C)OCC[N+](C)(C)C)CCC[Si](C)(C)OCC[N+](C)(C)C)(CCC[Si](C)(CCC[Si](C)(C)OCC[N+](C)(C)C)CCC[Si](C)(C)OCC[N+](C)(C)C)CCC[Si](C)(CCC[Si](C)(C)OCC[N+](C)(C)C)CCC[Si](C)(C)OCC[N+](C)(C)C)CCC[Si](C)(C)OCC[N+](C)(C)C.[I-].[I-].[I-].[I-].[I-].[I-].[I-].[I-] [IM8, 2G-[Si(OCH2CH2NMe3^+I^−)]8] | 98% | 60% | 18% | 12% | 10% | – | – | – | – | –
5 | CN(CCO[Si](C)(C)CCC[Si](C)(CCC[Si](CCC[Si](C)(CCC[Si](C)(C)OCCN(C)CC[N+](C)(C)C)CCC[Si](C)(C)OCCN(C)CC[N+](C)(C)C)(CCC[Si](C)(CCC[Si](C)(C)OCCN(C)CC[N+](C)(C)C)CCC[Si](C)(C)OCCN(C)CC[N+](C)(C)C)CCC[Si](C)(CCC[Si](C)(C)OCCN(C)CC[N+](C)(C)C)CCC[Si](C)(C)OCCN(C)CC[N+](C)(C)C)CCC[Si](C)(C)OCCN(C)CC[N+](C)(C)C)CC[N+](C)(C)C.[I-].[I-].[I-].[I-].[I-].[I-].[I-].[I-] [NN, 2G-[Si(O(CH2)2N(Me)(CH2)2NMe3^+I^−)]8] | 87% | 68% | 66% | 32% | 9% | greater mitochondrial viability | complex is formed | complex is formed | complex is formed | 17 h

Reference: patent publication US8603493B2, “Carbosilane dendrimers, preparation method thereof and use of same” (Dendrico, S.L., priority 2005, dated 2013)
